# Columns and labels:
# KDM3B [1] = target: T1, KDM3B (Homo sapiens, UniProt Q7LBC6); assay: cell-free TR-FRET demethylase inhibition assay (Eurofins); type: biochemical
# CTR = assay: cells; set-up: 72 h cell growth/viability dose-response in pediatric solid tumour lines and primary fibroblasts; conditions: Fibroblast, 72 h; read-out: P3FI-63 EC50 (72 hr)
# Source text: (§1) The half-maximal effective concentrations (EC50) of P3FI-63 on FP-RMS cell lines RH4, RH30, and SCMC were in the single digit µM range (Fig. 1E). Next, we tested other pediatric solid cancer lines to determine broader applicability of P3FI-63.
# TC-32 = assay: cells; set-up: 72 h cell growth/viability dose-response in pediatric solid tumour lines and primary fibroblasts; conditions: Homo sapiens, TC-32, 72 h; read-out: P3FI-63 EC50 (72 hr)
# Source text: as §1
# A673 = assay: cells; set-up: 72 h cell growth/viability dose-response in pediatric solid tumour lines and primary fibroblasts; conditions: Homo sapiens, A673, 72 h; read-out: P3FI-63 EC50 (72 hr)
# Source text: as §1
# 7250 = assay: cells; set-up: 72 h cell growth/viability dose-response in pediatric solid tumour lines and primary fibroblasts; conditions: 72 h, primary human fibroblast; read-out: P3FI-63 EC50 (72 hr), fibroblast
# Source text: as §1
# HU09 = assay: cells; set-up: 72 h cell growth/viability dose-response in pediatric solid tumour lines and primary fibroblasts; conditions: Fibroblast, 72 h; read-out: P3FI-63 EC50 (72 hr)
# Source text: as §1
# OSA = assay: cells; set-up: 72 h cell growth/viability dose-response in pediatric solid tumour lines and primary fibroblasts; conditions: Fibroblast, 72 h; read-out: P3FI-63 EC50 (72 hr)
# Source text: as §1
# KDM3B [2] = target: T1, KDM3B; assay: SPR (Biacore T200); also WaterLOGSY and CPMG ligand-observed NMR, and enzyme inhibition (TR-FRET); type: binding; set-up: full-length KDM3B (His6-Avi-KDM3B) for SPR; enzymatic domain (truncated) for NMR
# T1 sequence (Q7LBC6 2-1761): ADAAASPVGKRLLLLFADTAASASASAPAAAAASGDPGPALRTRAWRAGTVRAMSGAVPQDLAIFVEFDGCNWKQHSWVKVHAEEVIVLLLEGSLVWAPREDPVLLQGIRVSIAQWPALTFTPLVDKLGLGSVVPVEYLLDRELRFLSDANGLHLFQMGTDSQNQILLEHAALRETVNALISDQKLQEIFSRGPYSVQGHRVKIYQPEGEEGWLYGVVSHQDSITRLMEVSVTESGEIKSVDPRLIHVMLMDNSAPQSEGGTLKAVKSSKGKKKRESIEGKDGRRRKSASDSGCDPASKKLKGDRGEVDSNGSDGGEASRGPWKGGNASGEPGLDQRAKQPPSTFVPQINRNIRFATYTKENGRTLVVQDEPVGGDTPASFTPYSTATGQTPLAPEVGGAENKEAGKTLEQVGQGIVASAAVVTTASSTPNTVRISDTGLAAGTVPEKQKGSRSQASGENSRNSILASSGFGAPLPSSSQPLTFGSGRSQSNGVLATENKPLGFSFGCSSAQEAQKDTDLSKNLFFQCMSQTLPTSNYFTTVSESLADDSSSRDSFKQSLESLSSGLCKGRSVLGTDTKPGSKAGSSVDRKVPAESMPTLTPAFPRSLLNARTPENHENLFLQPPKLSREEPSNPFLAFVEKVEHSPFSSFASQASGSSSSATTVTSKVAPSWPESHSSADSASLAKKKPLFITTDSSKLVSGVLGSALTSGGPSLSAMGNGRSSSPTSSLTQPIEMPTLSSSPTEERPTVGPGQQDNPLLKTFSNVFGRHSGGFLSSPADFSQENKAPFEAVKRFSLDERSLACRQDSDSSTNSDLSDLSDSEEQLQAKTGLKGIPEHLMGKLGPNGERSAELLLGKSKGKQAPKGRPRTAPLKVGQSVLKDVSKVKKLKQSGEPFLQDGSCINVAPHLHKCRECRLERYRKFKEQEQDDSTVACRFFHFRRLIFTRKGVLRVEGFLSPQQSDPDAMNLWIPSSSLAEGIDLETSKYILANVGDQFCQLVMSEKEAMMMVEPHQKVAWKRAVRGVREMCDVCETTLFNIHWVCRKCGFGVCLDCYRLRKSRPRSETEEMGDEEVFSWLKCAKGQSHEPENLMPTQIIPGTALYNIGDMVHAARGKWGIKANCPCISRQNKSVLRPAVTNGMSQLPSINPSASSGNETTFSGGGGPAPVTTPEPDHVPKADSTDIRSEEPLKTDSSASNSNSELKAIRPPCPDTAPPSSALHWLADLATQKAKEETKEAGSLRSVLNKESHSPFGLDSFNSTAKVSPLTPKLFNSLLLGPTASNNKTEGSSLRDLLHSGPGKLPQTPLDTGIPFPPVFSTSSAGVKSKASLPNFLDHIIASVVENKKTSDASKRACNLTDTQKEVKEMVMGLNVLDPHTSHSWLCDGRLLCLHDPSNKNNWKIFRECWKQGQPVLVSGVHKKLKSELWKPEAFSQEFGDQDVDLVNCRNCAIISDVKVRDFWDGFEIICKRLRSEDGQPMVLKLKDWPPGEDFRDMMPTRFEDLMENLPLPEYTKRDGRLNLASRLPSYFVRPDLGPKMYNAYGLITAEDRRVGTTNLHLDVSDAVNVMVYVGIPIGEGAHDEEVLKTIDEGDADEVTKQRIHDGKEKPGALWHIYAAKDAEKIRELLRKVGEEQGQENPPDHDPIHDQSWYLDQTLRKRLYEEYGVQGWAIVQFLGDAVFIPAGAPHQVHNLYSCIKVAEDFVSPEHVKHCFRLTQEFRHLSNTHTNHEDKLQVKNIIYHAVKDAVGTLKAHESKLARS
IC50 (KDM3B [1]) [µM],Kd (KDM3B [2]) [µM],SMILES,EC50 (CTR) [nM],EC50 (TC-32) [nM],EC50 (A673) [µM],EC50 7250 [µM],EC50 (HU09) [µM],EC50 (OSA) [µM]
7,,Cc1cc(C)cc(C(=O)NNC(=O)c2ccccn2)c1 [P3FI-63],2920,1700,3.7,6.62,3.1,7.5
,7.68,O=C(NNc1ccccn1)c1ccccn1 [P3FI-90],,,,,,

# — paper PMC10894237, “KDM3B inhibitors disrupt the oncogenic activity of PAX3-FOXO1 in fusion-positive rhabdomyosarcoma” (Nature Communications, 2024)
